Experimental data from PubChem BioAssay AID330 (DTP/NCI, 2004).
Values joined by “and” are separate entries in the source; they are usually repeats but may differ in a detail not shown here. Identical values can stand only once. Inconclusive results and toxic doses are left out. How the source made its calls: active means survival T/C of 150% or more; inactive means T/C below 125% in these data.

Tested on: P388 leukemia ip, CD2F1 mice, survival T/C
Assay: NCI In Vivo Anticancer Drug Screen. Data for tumor model P388 Leukemia (intraperitoneal) in CD2F1 (CDF1) mice
Conditions: endpoint: median survival time, higher = longer survival
In short: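 Mice carrying the transplanted tumor received test compound or vehicle. Survival was recorded in each group, and the value is the treated-group measurement divided by that of the vehicle-treated control group.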

[1] = dose: 100.0 mg/kg/injection, schedule: Q01DX009 (ip), vehicle: saline with Tween-80
[2] = dose: 200.0 mg/kg/injection, schedule: Q01DX009 (ip), vehicle: saline with Tween-80
[3] = dose: 12.5 mg/kg/injection, schedule: Q01DX005 (ip), vehicle: Klucel (hydroxypropylcellulose) (HPC)
[4] = dose: 25.0 mg/kg/injection, schedule: Q01DX005 (ip), vehicle: Klucel (hydroxypropylcellulose) (HPC)
[5] = dose: 50.0 mg/kg/injection, schedule: Q01DX005 (ip), vehicle: Klucel (hydroxypropylcellulose) (HPC)
[6] = dose: 100.0 mg/kg/injection, schedule: Q01DX005 (ip), vehicle: Klucel (hydroxypropylcellulose) (HPC)
[7] = dose: 50.0 mg/kg/injection, schedule: Q01DX005 (ip), vehicle: saline with Tween-80
[8] = dose: 100.0 mg/kg/injection, schedule: Q01DX005 (ip), vehicle: saline with Tween-80
[9] = dose: 200.0 mg/kg/injection, schedule: Q01DX005 (ip), vehicle: saline with Tween-80
[10] = dose: 50.0 mg/kg/injection, schedule: Q01DX009 (ip), vehicle: saline with Tween-80
[11] = dose: 100.0 mg/kg/injection, schedule: Q01DX009 (ip), vehicle: Klucel (hydroxypropylcellulose) (HPC)
[12] = dose: 200.0 mg/kg/injection, schedule: Q01DX009 (ip), vehicle: Klucel (hydroxypropylcellulose) (HPC)

Measured: T/C

CCCCN(CCCC)CC(O)c1cc2ccc(C(F)(F)F)cc2c2cc(C(F)(F)F)ccc12 (stereo not drawn)
inactive: dose: 6.25 mg/kg/injection, schedule: Q01DX009 (ip), vehicle: saline with Tween-80 93 % of control | dose: 12.5 mg/kg/injection, schedule: Q01DX009 (ip), vehicle: saline with Tween-80 94 % of control | dose: 25.0 mg/kg/injection, schedule: Q01DX009 (ip), vehicle: saline with Tween-80 88 % of control | [1] 100 % of control | [2] 99 % of control

CCc1nc(N)nc(N)c1-c1ccc(N2CC[N+](C)(C)CC2)cc1
inactive: dose: 0.24 mg/kg/injection, schedule: Q01DX005 (ip), vehicle: saline with Tween-80 99 % of control | dose: 0.48 mg/kg/injection, schedule: Q01DX005 (ip), vehicle: saline with Tween-80 101 % of control | dose: 0.94 mg/kg/injection, schedule: Q01DX005 (ip), vehicle: saline with Tween-80 105 % of control | dose: 0.96 mg/kg/injection, schedule: Q01DX005 (ip), vehicle: saline with Tween-80 119 % of control

O=C1c2c(Cl)c(Cl)c(Cl)c(Cl)c2C(=O)C2(Cl)CC=CCC12Cl (stereo not drawn)
inactive: dose: 6.25 mg/kg/injection, schedule: Q01DX005 (ip), vehicle: Klucel (hydroxypropylcellulose) (HPC) 101 % of control | [3] 95 % of control | [4] 101 % of control

Cc1nc(Nc2ccccc2C)c2ccsc2n1
inactive: [5] 91 % of control | [6] 87 % of control

NS(=O)(=O)c1nc2nc[nH]c(=O)c2[nH]1
inactive: [7] 100 % of control | [8] 106 % of control | [9] 101 % of control

C[C@]12CC(=O)[C@@H](C[C@H]1OC(=O)c1ccccc1)[C@@]21CO1
inactive: dose: 2.0 mg/kg/injection, schedule: Q04DX002 (ip), vehicle: distilled water + Tween-80 102 % of control | dose: 4.0 mg/kg/injection, schedule: Q04DX002 (ip), vehicle: distilled water + Tween-80 97 % of control | dose: 8.0 mg/kg/injection, schedule: Q04DX002 (ip), vehicle: distilled water + Tween-80 100 % of control | dose: 16.0 mg/kg/injection, schedule: Q04DX002 (ip), vehicle: distilled water + Tween-80 106 % of control | dose: 32.0 mg/kg/injection, schedule: Q04DX002 (ip), vehicle: distilled water + Tween-80 99 % of control

c1ccc2sc(SSc3nc4ccccc4s3)nc2c1
inactive: [10] 110 % of control | [1] 108 % of control | [2] 104 % of control | dose: 400.0 mg/kg/injection, schedule: Q01DX009 (ip), vehicle: saline with Tween-80 109 % of control

Cc1cc2nc3[nH]c4ccccc4c3nc2cc1C
inactive: dose: 25.0 mg/kg/injection, schedule: Q01DX009 (ip), vehicle: suspension in saline 94 % of control | dose: 50.0 mg/kg/injection, schedule: Q01DX009 (ip), vehicle: suspension in saline 92 % of control | dose: 100.0 mg/kg/injection, schedule: Q01DX009 (ip), vehicle: suspension in saline 94 % of control | dose: 200.0 mg/kg/injection, schedule: Q01DX009 (ip), vehicle: suspension in saline 92 % of control

CC(O)CCC1CCCCN1 (stereo not drawn)
inactive: dose: 50.0 mg/kg/injection, schedule: Q01DX005 (ip), vehicle: saline 109 % of control | dose: 100.0 mg/kg/injection, schedule: Q01DX005 (ip), vehicle: saline 100 % of control | dose: 200.0 mg/kg/injection, schedule: Q01DX005 (ip), vehicle: saline 101 % of control

C[C@@H]1C[C@](O)([C@@H](C)Cl)C(=O)O[C@@H]2CCN3CC=C(COC(=O)[C@]1(C)O)[C@H]23
inactive: dose: 2.75 mg/kg/injection, schedule: Q01DX009 (ip), vehicle: saline 104 % of control | dose: 3.75 mg/kg/injection, schedule: Q01DX009 (ip), vehicle: saline 103 % of control | dose: 5.5 mg/kg/injection, schedule: Q01DX009 (ip), vehicle: saline 104 % of control | dose: 7.5 mg/kg/injection, schedule: Q01DX009 (ip), vehicle: saline 106 % of control | dose: 11.0 mg/kg/injection, schedule: Q01DX009 (ip), vehicle: saline 113 % of control | dose: 15.0 mg/kg/injection, schedule: Q01DX009 (ip), vehicle: saline 95 % of control | dose: 22.0 mg/kg/injection, schedule: Q01DX009 (ip), vehicle: saline 104 % of control | dose: 30.0 mg/kg/injection, schedule: Q01DX009 (ip), vehicle: saline 106 % of control

c1cc2c(cc1C1SCSCS1)OCO2
inactive: [11] 100 % of control | [12] 120 % of control | dose: 400.0 mg/kg/injection, schedule: Q01DX009 (ip), vehicle: Klucel (hydroxypropylcellulose) (HPC) 110 % of control

O=C1c2ccccc2C(=O)c2c(OCCOCCO)cccc21
inactive: [7] 118 % of control | [8] 112 % of control | [9] 96 % of control

CC1=NNB(O)c2ccsc21
inactive: [10] 98 % of control | [1] 99 % of control | [2] 108 % of control

CC1C(c2ccccc2)N(C)C(c2ccccc2)C(C)C1(O)c1ccccc1 (stereo not drawn)
inactive: [7] 97 % of control | [8] 94 % of control | [9] 94 % of control

CC(=O)Nc1ccc(S(=O)(=O)OC(C)C)cc1
inactive: dose: 100.0 mg/kg/injection, schedule: Q04DX003 (ip), vehicle: saline 105 % of control | dose: 200.0 mg/kg/injection, schedule: Q04DX003 (ip), vehicle: saline 113 % of control | dose: 400.0 mg/kg/injection, schedule: Q04DX003 (ip), vehicle: saline 118 % of control

CC1CN(/C=C2\Cc3c(Cl)cccc3C2=O)CCN1c1ccc(Cl)cc1 (stereo not drawn)
inactive: dose: 100.0 mg/kg/injection, schedule: Q04DX002 (ip), vehicle: saline 100 % of control | dose: 200.0 mg/kg/injection, schedule: Q04DX002 (ip), vehicle: saline 102 % of control | dose: 400.0 mg/kg/injection, schedule: Q04DX002 (ip), vehicle: saline 100 % of control

Cc1ccc(NC(=O)Oc2ccc(Cl)cc2Cl)c([N+](=O)[O-])c1
inactive: dose: 50.0 mg/kg/injection, schedule: Q01DX009 (ip), vehicle: gum acacia 109 % of control | dose: 100.0 mg/kg/injection, schedule: Q01DX009 (ip), vehicle: gum acacia 109 % of control | dose: 200.0 mg/kg/injection, schedule: Q01DX009 (ip), vehicle: gum acacia 109 % of control

CC/C=C/C(O)C(O)C1=C(C)C(=O)C2(O1)C(=O)NC(OC)(C(=O)c1ccccc1)C2O (stereo not drawn)
inactive: [3] 99 % of control | [4] 99 % of control | [5] 94 % of control | [6] 96 % of control | dose: 150.0 mg/kg/injection, schedule: Q01DX005 (ip), vehicle: Klucel (hydroxypropylcellulose) (HPC) 103 % of control | dose: 200.0 mg/kg/injection, schedule: Q01DX005 (ip), vehicle: Klucel (hydroxypropylcellulose) (HPC) 106 % of control

Cc1cc(Br)ccc1N=c1scc(-c2ccc(Cl)cc2)n1C
inactive: dose: 50.0 mg/kg/injection, schedule: Q01DX009 (ip), vehicle: Klucel (hydroxypropylcellulose) (HPC) 95 % of control | [11] 93 % of control | [12] 91 % of control

CCCCn1c2nc(=O)n(C)c(=O)c-2cc2ccccc21
inactive: [10] 110 % of control and 90 % of control | dose: 66.0 mg/kg/injection, schedule: Q01DX009 (ip), vehicle: saline with Tween-80 103 % of control | [1] 102 % of control | dose: 150.0 mg/kg/injection, schedule: Q01DX009 (ip), vehicle: saline with Tween-80 103 % of control | [2] 120 % of control and 98 % of control

COS(C)=O (stereo not drawn)
inactive: dose: 50.0 mg/kg/injection, schedule: Q01DX009 (ip), vehicle: saline 99 % of control | dose: 100.0 mg/kg/injection, schedule: Q01DX009 (ip), vehicle: saline 99 % of control
